# System: Patients diagnosed with Alzheimer's Disease
# Test: Adverse events and discontinuation in 5-month slow-titration trial
# Assay type: in vivo, human
# Experimental: Subjects in the Placebo group received 21 weeks (5 months) of placebo medication.
# The safety of the drug was also monitored throughout the study. Blood samples for biochemistry and haematology and random urine sample for urinalysis were taken at each visit and at completion for all efficacy testing. Systolic and diastolic blood pressure were measured in the sitting position, pulse and vital signs were recorded at each visit.
smiles,measurement,setting,value
"COc1ccc2c3c1O[C@H]1C[C@@H](O)C=C[C@@]31CCN(C)C2 [GAL, galantamine]",Serious adverse event Cardiac failure: number,16 mg/day,3
same,Serious adverse event Dehydration: %,16 mg/day,(1.1%)
same,Serious adverse event Dehydration: number,16 mg/day,3
same,Serious adverse event Diarrhea: %,16 mg/day,(1.1%)
same,Serious adverse event Diarrhea: number,16 mg/day,3
same,Serious adverse event Dyspnea: %,16 mg/day,(0.7%)
same,Serious adverse event Dyspnea: number,16 mg/day,2
same,Serious adverse event Fall: %,16 mg/day,(0.4%)
same,Serious adverse event Fall: number,16 mg/day,1
same,Serious adverse event Gi haemorrhage: %,16 mg/day,(0.0%)
same,Serious adverse event Gi haemorrhage: number,16 mg/day,0
same,Serious adverse event Injury: %,16 mg/day,(0.4%)
same,Serious adverse event Injury: number,16 mg/day,1
same,Serious adverse event Myocardial infarction: %,16 mg/day,(0.4%)
same,Serious adverse event Myocardial infarction: number,16 mg/day,1
same,Serious adverse event Nausea: %,16 mg/day,(0.7%)
same,Serious adverse event Nausea: number,16 mg/day,2
same,Serious adverse event Pneumonia: %,16 mg/day,(0.7%)
same,Serious adverse event Pneumonia: number,16 mg/day,2
same,Serious adverse event Sepsis: %,16 mg/day,(0.0%)
same,Serious adverse event Sepsis: number,16 mg/day,0
same,Serious adverse event Surgical intervention: %,16 mg/day,(1.1%)
same,Serious adverse event Surgical intervention: number,16 mg/day,3
same,Serious adverse event Syncope: %,16 mg/day,(1.4%)
same,Serious adverse event Syncope: number,16 mg/day,4
same,Serious adverse event Thrombophlebitis deep: %,16 mg/day,(0.0%)
same,Serious adverse event Thrombophlebitis deep: number,16 mg/day,0
same,Serious adverse event Transient ischemic attack: %,16 mg/day,(0.7%)
same,Serious adverse event Transient ischemic attack: number,16 mg/day,2
same,Serious adverse event Urinary tracq infection: %,16 mg/day,(0.7%)
same,Serious adverse event Urinary tracq infection: number,16 mg/day,2
same,Serious adverse event Vomiting: %,16 mg/day,(0.7%)
same,Serious adverse event Vomiting: number,16 mg/day,2
same,Syncope: % of patients,16 mg/day,(1.8%)
same,Syncope: number of patients,16 mg/day,5
same,Total discontinued (DC): %,16 mg/day,22%
same,Total discontinued (DC): N,16 mg/day,60
same,Total patients with any SAE: %,16 mg/day,(10.0%)
same,Total patients with any SAE: number,16 mg/day,28
same,Urinary tract infection: % of patients,16 mg/day,(8.2%)
same,Urinary tract infection: number of patients,16 mg/day,23
same,Vomiting: % of patients,16 mg/day,(6.1%)
same,Vomiting: number of patients,16 mg/day,17
same,Weight decrease: % of patients,16 mg/day,(5.4%)
same,Weight decrease: number of patients,16 mg/day,15
same,Agitation: % of patients,24 mg/day,(8.1%)
same,Agitation: number of patients,24 mg/day,22
same,Anorexia: % of patients,24 mg/day,(8.8%)
same,Anorexia: number of patients,24 mg/day,24
same,Bradycardia: % of patients,24 mg/day,(2.9%)
same,Bradycardia: number of patients,24 mg/day,8
same,Convulsions: % of patients,24 mg/day,(0.4%)
same,Convulsions: number of patients,24 mg/day,1
same,DC due to adverse event: %,24 mg/day,10%
same,DC due to adverse event: N,24 mg/day,27
same,DC due to inefficacy: %,24 mg/day,1%
same,DC due to inefficacy: N,24 mg/day,2
same,Depression: % of patients,24 mg/day,(8.%)
same,Depression: number of patients,24 mg/day,22
same,Diarrhea: % of patients,24 mg/day,(5.5%)
same,Diarrhea: number of patients,24 mg/day,15
same,Dizziness: % of patients,24 mg/day,(7.0%)
same,Dizziness: number of patients,24 mg/day,19
same,Dyspepsia: % of patients,24 mg/day,(5.5%)
same,Dyspepsia: number of patients,24 mg/day,15
same,Edema peripheral: % of patients,24 mg/day,(2.6%)
same,Edema peripheral: number of patients,24 mg/day,7
same,Fall: % of patients,24 mg/day,(4.4%)
same,Fall: number of patients,24 mg/day,12
same,Fatigue: % of patients,24 mg/day,(4.8%)
same,Fatigue: number of patients,24 mg/day,13
same,Headache: % of patients,24 mg/day,(4.8%)
same,Headache: number of patients,24 mg/day,13
same,Injury: % of patients,24 mg/day,(5.9%)
same,Injury: number of patients,24 mg/day,16
same,Muscle weakness: % of patients,24 mg/day,(0.4%)
same,Muscle weakness: number of patients,24 mg/day,1
same,Nausea: % of patients,24 mg/day,(16.5%)
same,Nausea: number of patients,24 mg/day,45
same,Rhinitis: % of patients,24 mg/day,(4.0%)
same,Rhinitis: number of patients,24 mg/day,11
same,Serious adverse event Abdominal pain: %,24 mg/day,(0.0%)
same,Serious adverse event Abdominal pain: number,24 mg/day,0
same,Serious adverse event Agitation: %,24 mg/day,(0.0%)
same,Serious adverse event Agitation: number,24 mg/day,0
same,Serious adverse event Asthenia: %,24 mg/day,(0.4%)
same,Serious adverse event Asthenia: number,24 mg/day,1
same,Serious adverse event Basal cell carcinoma: %,24 mg/day,(0.7%)
same,Serious adverse event Basal cell carcinoma: number,24 mg/day,2
same,Serious adverse event Breast neoplasm female: %,24 mg/day,(0.0%)
same,Serious adverse event Breast neoplasm female: number,24 mg/day,0
same,Serious adverse event Cardiac failure: %,24 mg/day,(0.0%)
same,Serious adverse event Cardiac failure: number,24 mg/day,0
same,Serious adverse event Dehydration: %,24 mg/day,(0.0%)
same,Serious adverse event Dehydration: number,24 mg/day,0
same,Serious adverse event Diarrhea: %,24 mg/day,(0.0%)
same,Serious adverse event Diarrhea: number,24 mg/day,0
same,Serious adverse event Dyspnea: %,24 mg/day,(1.1%)
same,Serious adverse event Dyspnea: number,24 mg/day,3.
same,Serious adverse event Fall: %,24 mg/day,(1.1%)
same,Serious adverse event Fall: number,24 mg/day,3
same,Serious adverse event Gi haemorrhage: %,24 mg/day,(0.7%)
same,Serious adverse event Gi haemorrhage: number,24 mg/day,2
same,Serious adverse event Injury: %,24 mg/day,(1.8%)
same,Serious adverse event Injury: number,24 mg/day,5
same,Serious adverse event Myocardial infarction: %,24 mg/day,(0.4%)
same,Serious adverse event Myocardial infarction: number,24 mg/day,1
same,Serious adverse event Nausea: %,24 mg/day,(0.0%)
same,Serious adverse event Nausea: number,24 mg/day,0
same,Serious adverse event Pneumonia: %,24 mg/day,(1.1%)
same,Serious adverse event Pneumonia: number,24 mg/day,3
same,Serious adverse event Sepsis: %,24 mg/day,(0.0%)
same,Serious adverse event Sepsis: number,24 mg/day,0
same,Serious adverse event Surgical intervention: %,24 mg/day,(0.0%)
same,Serious adverse event Surgical intervention: number,24 mg/day,0
same,Serious adverse event Syncope: %,24 mg/day,(1.8%)
same,Serious adverse event Syncope: number,24 mg/day,5
same,Serious adverse event Thrombophlebitis deep: %,24 mg/day,(0.7%)
same,Serious adverse event Thrombophlebitis deep: number,24 mg/day,2
same,Serious adverse event Transient ischemic attack: %,24 mg/day,(0.0%)
same,Serious adverse event Transient ischemic attack: number,24 mg/day,0
same,Serious adverse event Urinary tracq infection: %,24 mg/day,(0.0%)
same,Serious adverse event Urinary tracq infection: number,24 mg/day,0
same,Serious adverse event Vomiting: %,24 mg/day,(0.4%)
same,Serious adverse event Vomiting: number,24 mg/day,1
same,Syncope: % of patients,24 mg/day,(3.3%)
same,Syncope: number of patients,24 mg/day,9
same,Total discontinued (DC): %,24 mg/day,22%
same,Total discontinued (DC): N,24 mg/day,61
same,Total patients with any SAE: %,24 mg/day,(12.8%)
same,Total patients with any SAE: number,24 mg/day,35
same,Urinary tract infection: % of patients,24 mg/day,(8.1%)
same,Urinary tract infection: number of patients,24 mg/day,22
same,Vomiting: % of patients,24 mg/day,(9.9%)
same,Vomiting: number of patients,24 mg/day,27
same,Weight decrease: % of patients,24 mg/day,(4.8%)
same,Weight decrease: number of patients,24 mg/day,13

# From patent US20030139391A1 (priority 2000, published 2003)
